# Results published in US20150159167A1, “Plants Tolerant to HPPD Inhibitor Herbicides” (Bayer CropScience AG, priority 2009, published 2015).
# Assays:
# [1] = test system: Synechococcus sp. HPPD "SEQ ID No. 5"; test: HPPD activity in presence of HPPD inhibitors (pI50, % inhibition); type: biochemical; details: for pI50: 2 mM HPP, 3 minutes incubation; for percentage of inhibition: 5.0 × 10^−6 M inhibitor, compared to activity in absence of inhibitor
# Description: (§1) In this content, pI50-value means the log value of the concentration of inhibitor necessary to inhibit 50% of the enzyme activity in molar concentration.
# [2] = target: Synechococcus sp. HPPD "SEQ ID No. 5"; test: HPLC assay of HPPD activity, in vitro kinetic properties; type: biochemical
# Description: Km, Vmax, and kcat values for different HPPD enzyme preparations and Ki, K1=Kon, and K−1=Koff for different HPPD inhibitors were determined using a HPLC assay for measurements of HPPD activity. […] All assays were started by the addition of HPPD enzyme to the assay mixture and stopped at a series of times between 0 and 240 s by addition of 200 μl of the reaction mixture to reaction assay tubes containing 20 μl 10% perchloric acid. Precipitated protein was pelleted by a 5 minute centrifugation at 10,000 g. […] A standard set of concentrations of HGA were used to provide a standard curve in order to calibrate the 292 nm absorbance of the HGA peak versus HGA concentration.
# For Km and Vmax value determinations the initial rates of the HPPD reaction at different substrate concentrations were determined from plots of HGA formed versus time and fitted to the Michaelis-Menten equation for unireactant enzymes using the ID Business Solutions Ltd. (idbs.com) XLfit software suite. For the determination of Ki, K1=Kon, and K=−1=Koff values the time-courses of the HPPD reaction at different inhibitor concentrations were fitted to the equations for Mechanism A, competitive inhibition, for tight-binding inhibitors (Cha, S. (1975) Tight-binding inhibitors-I. Kinetic behaviour. Biochemical Pharmacology 24, 2177-2185) using the ID Business Solutions Ltd. XLfit software suite
# (§2) In below given table 1, “Km” (Michaelis-Menten constant) means the kinetic parameter that is used to characterise an enzyme, and it is defined as the concentration of substrate that permits half maximal rate of the reaction. Km is further defined as the substrate concentration at which the reaction rate reaches half of its maximum value (Vmax/2) where Vmax has the meaning of being the maximum velocity of the reaction.
# (§3) Kon=K1 equals the association rate constant of the […] binding and Koff=K−1 equals the rate constant of the enzyme-inhibitor complex dissociation. Ki defines the inhibition constant.
# [3] = test system: T1 tobacco plants carrying FMP38e; test: Glasshouse response to bicyclopyrone, injury classes; type: in vivo, Nicotiana tabacum; details: 100 g AI/ha, 7 DAT
# Description: (§4) Seeds of wild type tobacco plants and T1 tobacco plants carrying the gene from Synechococcus sp. FMP38e coding for HPPD were sown on MS media (Murashige and Skoog 1964) supplemented with […] kanamycin. After 4 weeks, rooted green plantlets were transferred to soil and grown for 3 weeks in the glasshouse as described above then sprayed with a mixture containing bicyclopyrone (100 g AI/ha), ammonium sulfate and methyl ester raps oil. The plants were classified in two categories based on the phenotype developed in response to the herbicide seven days after the treatment. […] In this case, only plants containing at least one T-DNA were exposed to the herbicidal treatment.
# wild type tobacco plants = test: as above; type: in vivo, Nicotiana tabacum; details: 100 g AI/ha, 7 DAT; line WT
# Description: as §4
# [4] = target: T1, Arabidopsis thaliana HPPD "SEQ ID No. 10" (Arabidopsis thaliana, UniProt P93836); test: HPLC assay of HPPD activity, in vitro kinetic properties; type: biochemical; details: substrate HPP varied between 10 and 400 μM
# T1 construct: Preparation of Synechococcus sp; Ala + 6xHis (N); made in house; host or cells: E. coli K-12 BL21 (pQE30-AtHPPD)
# T1 sequence (P93836 with tags, fused parts or gaps): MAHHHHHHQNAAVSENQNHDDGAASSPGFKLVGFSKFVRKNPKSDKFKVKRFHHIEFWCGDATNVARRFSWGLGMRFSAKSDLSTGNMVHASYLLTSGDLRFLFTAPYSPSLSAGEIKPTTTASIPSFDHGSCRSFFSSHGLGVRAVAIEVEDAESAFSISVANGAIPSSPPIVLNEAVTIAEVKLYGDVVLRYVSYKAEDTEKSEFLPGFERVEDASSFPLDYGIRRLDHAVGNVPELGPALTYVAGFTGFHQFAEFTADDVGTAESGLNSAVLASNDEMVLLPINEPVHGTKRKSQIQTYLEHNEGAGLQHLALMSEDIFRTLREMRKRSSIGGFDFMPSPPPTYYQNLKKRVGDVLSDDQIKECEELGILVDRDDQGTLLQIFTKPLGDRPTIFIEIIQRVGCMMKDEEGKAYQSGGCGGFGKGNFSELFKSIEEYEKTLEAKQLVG
# Description: Km, Vmax, and kcat values for different HPPD enzyme preparations and Ki, K1=Kon, and K−1=Koff for different HPPD inhibitors were determined using a HPLC assay for measurements of HPPD activity. […] All assays were started by the addition of HPPD enzyme to the assay mixture and stopped at a series of times between 0 and 240 s by addition of 200 μl of the reaction mixture to reaction assay tubes containing 20 μl 10% perchloric acid. Precipitated protein was pelleted by a 5 minute centrifugation at 10,000 g.
# For Km and Vmax value determinations the initial rates of the HPPD reaction at different substrate concentrations were determined from plots of HGA formed versus time and fitted to the Michaelis-Menten equation for unireactant enzymes using the ID Business Solutions Ltd. (idbs.com) XLfit software suite.
# as §2, §3
# [5] = target: T1, Arabidopsis thaliana HPPD "SEQ ID No. 10"; test: HPPD activity in presence of HPPD inhibitors (pI50, % inhibition); type: biochemical
# Description: as §1
# wild-type soybean shoots = test: Soybean shoot greening under isoxaflutole selection; type: in vivo; details: same amount of isoxaflutole
# Description: (§5) Soybean transformation is achieved using methods well known in the art, such as the one described using the Agrobacterium tumefaciens mediated transformation soybean half-seed explants described by Paz et al. (2006, Plant cell Rep. 25:206). Transformants were identified using Isoxaflutole as selection marker. The appearance of green shoots was observed, and documented as an indicator of tolerance to the herbicide isoxaflutole. […] Tolerant green shoots were transferred to rooting media or grafted. Rooted plantlets are transferred to the glasshouse after an acclimation period.
# [6] = test system: transgenic soybean shoots (FMP38); test: as above; type: in vivo; details: isoxaflutole as selection marker
# Description: as §5
# [7] = substrate HPP varied between 10 and 400 μM
compound,measurement,setting,value
"CS(=O)(=O)c1ccc(C(=O)C2C(=O)CCCC2=O)c(Cl)c1COCC1CCCO1 (stereo not drawn) [Tefuryltrione, 2-[2-chloro-4-(methylsulfonyl)-3-[[(tetrahydro-2-furanyl)methoxy]methyl]benzoyl]-1,3-cyclohexanedione]",pI50,[1],5.6
same,percentage of inhibition,[1],72%
"CS(=O)(=O)c1cc(C(F)(F)F)ccc1C(=O)C(C#N)C(=O)C1CC1 (stereo not drawn) [Diketonitrile, 2-cyano-3-cyclopropyl-1-(2-methylsulphonyl-4-trifluoromethylphenyl)-propane-1,3-dione]",pI50,[1],5.5
same,percentage of inhibition,[1],62%
same,Ki,[2]; 2 mM HPP,12 µM
"COCCOCc1nc(C(F)(F)F)ccc1C(=O)C1=C(O)C2CCC(C2)C1=O (stereo not drawn) [Bicyclopyrone, 4-hydroxy-3-[[2-[(2-methoxyethoxy)methyl]-6-(trifluoromethyl)-3-pyridinyl]carbonyl]bicyclo[3.2.1]oct-3-en-2-one]",% of tolerant plant,[3]; line 34,17%
same,Class I (injury: 0-30%),[3]; line 34,59
same,Class II (injury: 31-100%),[3]; line 34,6
same,% of tolerant plant,[3]; line 39,46%
same,Class I (injury: 0-30%),[3]; line 39,100
same,Class II (injury: 31-100%),[3]; line 39,48
same,% of tolerant plant,[3]; line 197,15%
same,Class I (injury: 0-30%),[3]; line 197,89
same,Class II (injury: 31-100%),[3]; line 197,15
same,% of tolerant plant,wild type tobacco plants,0%
same,Class I (injury: 0-30%),wild type tobacco plants,0
same,Class II (injury: 31-100%),wild type tobacco plants,12
same,pI50,[1],5.0
same,percentage of inhibition,[1],19%
"CS(=O)(=O)c1ccc(C(=O)C2C(=O)CCCC2=O)c(Cl)c1 [Sulcotrione, 2-[2-chloro-4-(methylsulfonyl)benzoyl]-1,3-cyclohexanedione]",percentage of inhibition,[1],19%
"O=C(O)C(=O)Cc1ccc(O)cc1 [HPP, para-hydroxyphenylpyruvate]",Km,[4],6.3 µM
same,Vmax,[4],1.2 µM
same,Km,[2]; [7],5.1 µM
same,Vmax,[2]; [7],1.2 µM
Cc1ccc(C(=O)COc2c(C(=O)c3ccc(Cl)c(C)c3Cl)c(C)nn2C)cc1 [Benzofenap],percentage of inhibition,[1],31%
"CS(=O)(=O)c1ccc(C(=O)C2C(=O)CCCC2=O)c([N+](=O)[O-])c1 [Mesotrione, 2-[4-(methylsulfonyl)-2-nitrobenzoyl]-1,3-cyclohexanedione]",pI50,[1],5.4
same,percentage of inhibition,[1],47%
Cc1nn(C)c(O)c1C(=O)c1ccc(C(F)(F)F)cc1S(C)(=O)=O [Pyrasulfotole],pI50,[1],4.7
same,percentage of inhibition,[1],16%
same,pI50,"[5]; 2 mM HPP, 3 minutes incubation",5.4
same,percentage of inhibition,"[5]; 5.0 × 10^−6 M inhibitor, compared to activity in absence of inhibitor",69%
"CS(=O)(=O)c1cc(C(F)(F)F)ccc1C(=O)c1cnoc1C1CC1 [Isoxaflutole, (5-cyclopropyl-4-isoxazolyl)[2-(methylsulfonyl)-4-(trifluoromethyl)phenyl]methanone]",bleaching of shoots,wild-type soybean shoots,entirely bleached
same,transgenic tested shoots showing normal greening,[6],0.6%
